Assay results reported in US9452990B2, “Complement pathway modulators and uses thereof” (NOVARTIS AG, priority 2012, dated 2016).
Structures can show the parent of a compound that is named as a salt.

Each compound was assayed against human complement factor B (CVF-Bb complex) (Homo sapiens (Human), UniProt P00751) (assay: Human Complement Factor B ELISA Assay). Conditions: not given.
Format: biochemical
Protocol: Human Complement Factor B ELISA Assay
CVF-Bb complex prepared from purified cobra venom factor (1 μM), recombinant human complement factor B (expressed in drosophila cells and purified using standard methods) and human complement factor D (expressed in E. Coli, refolded and purified using standard methods). CVF-Bb complex at 3 nM concentration was incubated with test compound at various concentrations for 1 hour at room temperature in PBS pH 7.4 containing 10 mM MgCl2 and 0.05% (w/v) CHAPS. Human complement C3 substrate purified from plasma was added to a final concentration of 1 μM. After 1 hour incubation at room temperature, the enzyme reaction was stopped by addition of a cocktail of concentrated pan-protease inhibitors. The product of the reaction, C3a, was quantified by means of an enzyme-linked-immunosorbent assay. IC50 values were calculated from percentage of inhibition of CVF-Bb activity as a function of test compound concentration.

| SMILES | IC50 [nM] |
| --- | --- |
| CCC[C@H]1CN(C(=O)C[C@@H](N)c2ccc(C#N)cc2)CCN1c1nc(N)c2cc(OC)c(OC)c(F)c2n1 [Example 67, 4-{(R)-1-Amino-3-[(S)-4-(4-amino-8-fluoro-6,7-dimethoxy-quinazolin-2-yl)-3-propyl-piperazin-1-yl]-3-oxo-propyl}-benzonitrile hydrochloride] | 10 |
| COc1cc2c(N)nc(N3CCN(C(=O)C[C@@H](N)c4ccc(F)c(Cl)c4)CC3)nc2c(F)c1OC [Example 52, (R)-3-Amino-1-[4-(4-amino-8-fluoro-6,7-dimethoxy-quinazolin-2-yl)-piperazin-1-yl]-3-(3-chloro-4-fluoro-phenyl)-propan-1-one hydrochloride] | 110 |
| COc1cc2c(N)nc(N3CCN(C(=O)C[C@@H](N)c4ccc(F)cc4)C[C@@H]3C)nc2c(F)c1OC [Example 60, (R)-3-Amino-1-[(S)-4-(4-amino-8-fluoro-6,7-dimethoxy-quinazolin-2-yl)-3-methyl-piperazin-1-yl]-3-(4-fluoro-phenyl)-propan-1-one hydrochloride] | 20 |
| COc1cc2c(N)nc(N3CCN(C(=O)C[C@@H](N)c4ccc(Br)cc4)CC3)nc2c(F)c1OC [Example 49, (R)-3-Amino-1-[4-(4-amino-8-fluoro-6,7-dimethoxy-quinazolin-2-yl)-piperazin-1-yl]-3-(4-bromo-phenyl)-propan-1-one hydrochloride] | 60 |
| COc1cc2c(N)nc(N3CCN(C(=O)C[C@@H](N)c4ccc(F)cc4)C[C@@H]3c3ccccc3)nc2c(F)c1OC [Example 69, (R)-3-Amino-1-[(S)-4-(4-amino-8-fluoro-6,7-dimethoxy-quinazolin-2-yl)-3-phenyl-piperazin-1-yl]-3-(4-fluoro-phenyl)-propan-1-one hydrochloride] | 7 |
| COc1cc2c(N)nc(N3CCN(C(=O)C[C@@H](N)c4ccc(C(F)(F)F)cc4)CC3)nc2c(F)c1OC [Example 55, (R)-3-Amino-1-[4-(4-amino-8-fluoro-6,7-dimethoxy-quinazolin-2-yl)piperazin-1-yl]-3-(4-trifluoromethyl-phenyl)-propan-1-one hydrochloride] | 160 |

Same assay, conditions: CVF-Bb complex 3 nM, 1 hour preincubation with compound at room temperature, human C3 substrate 1 μM, C3a quantified by ELISA; read-out: Factor B IC50

| SMILES | IC50 [nM] |
| --- | --- |
| CC[C@H]1CN(C(=O)c2cc3cc(C#N)ccc3[nH]2)CCN1c1nc(N)c2cc(OC)c(OC)c(F)c2n1 [Example 25, 2-[(S)-4-(4-Amino-8-fluoro-6,7-dimethoxy-quinazolin-2-yl)-3-ethyl-piperazine-1-carbonyl]-1H-indole-5-carbonitrile] | 6 |
| COc1cc2c(N)nc(N3CCN(C(=O)c4cc5cc(F)ccc5[nH]4)C[C@@H]3c3ccccc3)nc2c(F)c1OC [Example 29, (S)-(4-(4-amino-8-fluoro-6,7-dimethoxyquinazolin-2-yl)-3-phenylpiperazin-1-yl)(5-fluoro-1H-indol-2-yl)methanone] | 14 |
| COc1cc2c(N)nc(N3CCN(C(=O)C[C@H](c4ccccc4)N(C)C)CC3)nc2c(F)c1OC [Example 85, (R)-1-[4-(4-Amino-8-fluoro-6,7-dimethoxy-quinazolin-2-yl)-piperazin-1-yl]-3-dimethylamino-3-phenyl-propan-1-one] | 80 |
| COc1cc2c(N)nc(N3CCN(C(=O)[C@@H]4CCc5ccccc5[C@@H]4N)C[C@@H]3C)nc2c(F)c1OC [Example 105, [(S)-4-(4-Amino-8-fluoro-6,7-dimethoxy-quinazolin-2-yl)-3-methyl-piperazin-1-yl]-((1R,2R)-1-amino-1,2,3,4-tetrahydro-naphthalen-2-yl)-methanone] | 1070 |
| COc1cc2c(N)nc(N3CCN(C(=O)C[C@H](c4ccc(F)cc4)N4CCCC4)CC3)nc2c(F)c1OC [Example 103] | 15 |
| COCCOc1c(OC)cc2c(N)nc(N3CCN(C(=O)C[C@@H](N)c4ccc(C#N)cc4)C[C@@H]3C)nc2c1F [Example 71] | 70 |
| COc1cc2c(N)nc(N3CCN(C(=O)C[C@@H](NCC4CC4)c4ccsc4)CC3)nc2c(F)c1OC [Example 93, (R)-1-(4-(4-amino-8-fluoro-6,7-dimethoxyquinazolin-2-yl)piperazin-1-yl)-3-(cyclopropylmethylamino)-3-(thiophen-3-yl)propan-1-one] | 4 |
| COc1cc2c(N)nc(N3CCN(C(=O)C[C@@H](NC(C)C)c4ccc(F)c(C#N)c4)CC3)nc2c(F)c1OC [Example 91, (R)-5-(3-(4-(4-amino-8-fluoro-6,7-dimethoxyquinazolin-2-yl)piperazin-1-yl)-1-(isopropylamino)-3-oxopropyl)-2-fluorobenzonitrile] | 12 |
| COc1cc2c(N)nc(N3CCN(C(=O)C[C@@H]4CCCCN4)CC3)nc2c(C#N)c1OC [Example 126, (S)-4-Amino-6,7-dimethoxy-2-(4-(2-(piperidin-2-yl)acetyl)piperazin-1-yl)quinazoline-8-carbonitrile] | 2900 |
| COc1cc2c(N)nc(N3CCN(C(=O)C[C@@H](N)c4ccc(F)cc4)CC3)nc2c(Cl)c1OC [Example 82, (R)-3-Amino-1-(4-(4-amino-8-chloro-6,7-dimethoxyquinazolin-2-yl)piperazin-1-yl)-3-(4-fluorophenyl)propan-1-one] | 1020 |
| COc1cc2nc(N3CCN(C(=O)/C=C/C4CC4)CC3)nc(N)c2c(F)c1OC [Example 12, (E)-1-[4-(4-Amino-5-fluoro-6,7-dimethoxy-quinazolin-2-yl)-piperazin-1-yl]-3-cyclopropyl-propenone] | 140 |
| [2H]C([2H])([2H])C([2H])([2H])N[C@H](CC(=O)N1CCN(c2nc(N)c3cc(OC)c(OC)c(F)c3n2)CC1)c1ccc(F)cc1 [Example 131, (R)-1-(4-(4-amino-8-fluoro-6,7-dimethoxyquinazolin-2-yl)piperazin-1-yl)-3-(1,1,2,2,2-d^5 ethylamino)-3-(4-fluorophenyl)propan-1-one] | 3 |
| COc1cc2c(N)nc(N3CCN(C(=O)C[C@@H](N)c4cccc(C#N)c4)CC3)nc2c(F)c1OC [Example 43, 3-{(R)-1-Amino-3-[4-(4-amino-8-fluoro-6,7-dimethoxy-quinazolin-2-yl)-piperazin-1-yl]-3-oxo-propyl}-benzonitrile] | 40 |
| CN[C@H](CC(=O)N1CCN(c2nc(N)c3cc(OC)c(OC)c(F)c3n2)CC1)c1ccccc1 [Example 72, (R)-1-[4-(4-Amino-8-fluoro-6,7-dimethoxy-quinazolin-2-yl)-piperazin-1-yl]-3-methylamino-3-phenyl-propan-1-one] | 230 |
| COc1cc2c(N)nc(N3CCN(C(=O)C[C@@H]4CCCCN4)CC3)nc2c(F)c1OC [Example 113, 1-[4-(4-Amino-8-fluoro-6,7-dimethoxy-quinazolin-2-yl)-piperazin-1-yl]-2-(S)-piperidin-2-yl-ethanone] | 230 |
| COc1cc2c(N)nc(N3CCN(C(=O)C[C@@H](N)c4ccccc4)CC3)nc2c(Br)c1OC [Example 81, (R)-3-amino-1-(4-(4-Amino-8-bromo-6,7-dimethoxyquinazolin-2-yl)piperazin-1-yl)-3-phenylpropan-1-one] | 510 |
| COc1cc2c(N)nc(N3CCN(C(=O)C[C@@H](N)c4ccc(F)cc4)CC3)nc2c(F)c1OC [Example 46, (R)-3-Amino-1-[4-(4-amino-8-fluoro-6,7-dimethoxy-quinazolin-2-yl)-piperazin-1-yl]-3-(4-fluoro-phenyl)-propan-1-one] | 40 |
| C#CC[C@H](N)CC(=O)N1CCN(c2nc(N)c3cc(OC)c(OC)c(F)c3n2)CC1 [Example 31, (S)-3-Amino-1-[4-(4-amino-8-fluoro-6,7-dimethoxy-quinazolin-2-yl)-piperazin-1-yl]-hex-5-yn-1-one] | 1040 |
| COc1cc2c(N)nc(N3CCN(C(=O)c4cc5cc(F)cc(F)c5[nH]4)CC3)nc2c(F)c1OC [Example 22, [4-(4-Amino-8-fluoro-6,7-dimethoxy-quinazolin-2-yl)-piperazin-1-yl]-(5,7-difluoro-1H-indol-2-yl)-methanone] | 17 |
| COc1cc2c(N)nc(N3CCN(C(=O)C[C@@H]4CCCCN4)C[C@@H]3c3ccccc3)nc2c(F)c1OC [Example 121, 1-[(S)-4-(4-Amino-8-fluoro-6,7-dimethoxy-quinazolin-2-yl)-3-phenyl-piperazin-1-yl]-2-(S)-piperidin-2-yl-ethanone] | 20 |
| COCCCN[C@H](CC(=O)N1CCN(c2nc(N)c3cc(OC)c(OC)c(F)c3n2)CC1)c1ccc(F)cc1 [Example 94, (R)-1-(4-(4-amino-8-fluoro-6,7-dimethoxyquinazolin-2-yl)piperazin-1-yl)-3-(4-fluorophenyl)-3-(3-methoxypropylamino)propan-1-one] | 6 |
| COc1cc2c(N)nc(N3CCN(C(=O)C[C@@H](N)CC(C)C)CC3)nc2c(F)c1OC [Example 33, (S)-3-Amino-1-[4-(4-amino-8-fluoro-6,7-dimethoxy-quinazolin-2-yl)-piperazin-1-yl]-5-methyl-hexan-1-one] | 680 |
| COc1cc2c(N)nc(N3CCN(C(=O)C[C@@H]4CCCNC4)CC3)nc2c(F)c1OC [Example 114, 1-[4-(4-Amino-8-fluoro-6,7-dimethoxy-quinazolin-2-yl)-piperazin-1-yl]-2-(S)-piperidin-3-yl-ethanone] | 3870 |
| CCC[C@H]1CN(C(=O)/C=C/c2ccc(C#N)cc2)CCN1c1nc(N)c2cc(OC)c(OC)c(F)c2n1 [Example 9, 4-{(E)-3-[(S)-4-(4-Amino-8-fluoro-6,7-dimethoxy-quinazolin-2-yl)-3-propyl-piperazin-1-yl]-3-oxo-propenyl}-benzonitrile] | 20 |
